Laboratory results as given in patent US8889878B2, “Haloalky-substituted amides as insecticides and acaricides” (Bayer CropScience AG, priority 2009, dated 2014).

Columns and labels:
Boophilus microplus [1] = experiment: Boophilus microplus test (BOOPMI injection), Example 1; format: in vivo; settings: application rate 20 μg/animal, injected into abdomen, after 7 days
How it was run: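 Compound in DMSO, diluted with water, injected into the abdomen of engorged ticks, which were then held in a climate-controlled room. Efficacy was scored after 7 days from fertile egg laying, with 100% meaning no tick laid fertile eggs.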

Boophilus microplus [2] = experiment: Boophilus microplus test (BOOPMI injection), Example 11; format: in vivo; settings: application rate 20 μg/animal, injected into abdomen, after 7 days; for pest or weed control at 0.02 mg: Rhipicephalus microplus, 168 h, read-out: efficacy in % (fertile eggs laid)
How it was run: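 Adult ticks injected in the abdomen with compound diluted in DMSO, then held in a climate-controlled room. Efficacy in % determined after 7 days from fertile eggs laid; 100% means no tick laid fertile eggs.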

Ctenocephalides felis = Ctenocephalides felis oral (CTECFE), Example 12; format: in vivo; settings: application rate 100 ppm in citrated cow's blood, after 2 days
Procedure: Ctenocephalides felis Oral ([…]) • Solvent: 1 part by weight of dimethyl sulphoxide For the purpose of preparing an appropriate active ingredient formulation, 10 mg of active ingredient are mixed with 0.5 ml of dimethyl sulphoxide. A portion of the concentrate is diluted with citrated cow's blood and the desired concentration is established. About 20 unfed adult fleas (Ctenocephalides felis) are placed into a chamber sealed at the top and bottom with gauze. A metal cylinder with its lower end sealed with Parafilm is placed onto the chamber. The cylinder contains the blood-active ingredient preparation, which can be consumed by the fleas through the Parafilm membrane. After 2 days, the kill rate in % is determined. 100% means that all fleas were killed; 0% means that no fleas were killed.

[3] = test system: mustard beetle (Phaedon cochleariae); experiment: Phaedon test (PHAECO spray treatment), Example 16; format: in vivo; settings: china cabbage leaf discs sprayed, after the desired time
Procedure: Phaedon Test (PHAECO Spray Treatment)
(§1) • Solvent: 78.0 parts by weight of acetone • 1.5 parts by weight of dimethylformamide • Emulsifier: 0.5 part by weight of alkylaryl polyglycol ether
To prepare an appropriate active ingredient formulation, 1 part by weight of active ingredient is mixed with the stated amounts of solvent and emulsifier, and the concentrate is diluted with emulsifier-containing water to the desired concentration. […]
After the desired time, the efficacy in % is determined. 100% means that all beetle larvae were killed; 0% means that no beetle larvae were killed.

[4] = logP by HPLC on reverse-phase column (EEC Directive 79/831 Annex V.A8); format: physicochemical; settings: for chromatographic logP: reverse-phase C18 HPLC column
Procedure: The logP values reported in the above Tables and Preparation Examples were determined according to EEC Directive 79/831 Annex V.A8 by HPLC (High Performance Liquid Chromatography) on a reverse-phase column (C18). Temperature 43° C.

Musca domestica adults = experiment: Musca domestica test (MUSCDO), Example 14; format: in vivo; settings: application rate 100 ppm, treated sponge, after 2 days
How it was run: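 Compound dissolved in DMSO and diluted in water to the test concentration, then applied to a sponge in vessels holding adult flies. Percent kill scored after 2 days (100% = all flies dead).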

[5] = test system: mustard beetle (Phaedon cochleariae); experiment: Phaedon test (PHAECO spray treatment), Example 7; format: in vivo; settings: application rate 20 g/ha, china cabbage leaf discs sprayed, after 7 days
How it was run: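 Spray formulation (acetone/DMF with alkylaryl polyglycol ether, diluted in emulsifier-containing water) applied to Chinese cabbage leaf discs, which were dried and then stocked with mustard beetle larvae. Efficacy scored at 7 days as % larvae killed (100% all, 0% none).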

[6] = test system: red spider mite (Tetranychus urticae); experiment: Tetranychus test, OP-resistant (TETRUR spray treatment), Example 8; format: in vivo; settings: application rate 20 g/ha, common bean leaf discs sprayed, after 6 days
How it was run: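 Bean (Phaseolus vulgaris) leaf discs carrying all stages of OP-resistant Tetranychus urticae sprayed with compound in acetone/DMF with emulsifier, diluted in water to the test concentration. Mortality scored after 6 days as % efficacy (100% = all mites killed).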

[7] = test system: armyworm (Spodoptera frugiperda); experiment: Spodoptera frugiperda test (SPODFR spray treatment), Example 15; format: in vivo; settings: maize leaf discs sprayed, after 7 days
How it was run: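 Maize leaf discs sprayed with active ingredient in acetone/DMF with alkylaryl polyglycol ether emulsifier, diluted in water, then populated with caterpillars after drying. Efficacy in % after 7 days: 100% all caterpillars killed, 0% none.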

[8] = test system: red spider mite (Tetranychus urticae); experiment: Tetranychus test; OP-resistant (TETRUR spray treatment), Example 18; format: in vivo; settings: common bean leaf discs sprayed, after 6 days
Procedure: Tetranychus Test; OP-Resistant (TETRUR Spray Treatment)
as §1
(§2) To prepare an appropriate active ingredient formulation, 1 part by weight of active ingredient is mixed with the stated amounts of solvent and emulsifier, and the concentrate is diluted with emulsifier-containing water to the desired concentration. Leaf discs from the common bean (Phaseolus vulgaris) infested by all stages of the red spider mite (Tetranychus urticae) are sprayed with an active ingredient formulation of the desired concentration.
After 6 days, the efficacy in % is determined. 100% means that all spider mites were killed; 0% means that no spider mites were killed.

[9] = test system: Boophilus microplus females of the SP-resistant Parkhurst strain; experiment: Boophilus microplus test (DIP), Example 10; format: in vivo; settings: application rate 100 ppm, after 7 days
Procedure: Boophilus microplus Test (DIP)
Test animals: adult engorged Boophilus microplus females of the SP-resistant Parkhurst strain • Solvent: dimethyl sulphoxide
10 mg of active ingredient are dissolved in 0.5 ml of dimethyl sulphoxide. For the purpose of preparing a suitable formulation, the active ingredient solution is diluted with water to the concentration desired in each case.
This active ingredient formulation is pipetted into tubes. 8-10 ticks are transferred into a further tube with holes. The tube is immersed into the active ingredient formulation, and all ticks are completely wetted. After the liquid has run out, the ticks are transferred onto filter discs in plastic dishes and stored in a climate-controlled room. The efficacy is assessed after 7 days by the number of fertile eggs laid. Eggs whose fertility is not outwardly visible are stored in glass tubes in a climate-controlled cabinet until the larvae hatch. Efficacy of 100% means that none of the ticks has laid any fertile eggs.

[10] = test system: green peach aphid (Myzus persicae); experiment: Myzus test (MYZUPE spray treatment), Example 5; format: in vivo; settings: application rate 20 g/ha, china cabbage leaf discs sprayed, after 6 days
Procedure: Myzus Test (MYZUPE Spray Treatment)
• Solvent: 78 parts by weight of acetone • 1.5 parts by weight of dimethylformamide • Emulsifier: 0.5 part by weight of alkylaryl polyglycol ether
as §2, with “an” for “an appropriate”, “china cabbage (Brassica pekinensis)” for “the common bean (Phaseolus vulgaris)”, “green peach aphid (Myzus persicae)” for “red spider mite (Tetranychus urticae)”
After 6 days, the efficacy in % is determined. 100% means that all aphids were killed; 0% means that no aphids were killed.

[11] = test system: green peach aphid (Myzus persicae); experiment: Myzus test (MYZUPE spray treatment), Example 17; format: in vivo; settings: application rate 100 g/ha, china cabbage leaf discs sprayed, after 6 days
How it was run: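 Chinese cabbage leaf discs infested with all aphid stages were sprayed with compound formulated in acetone/dimethylformamide plus alkylaryl polyglycol ether emulsifier, diluted in emulsifier-containing water. Mortality read after 6 days as % efficacy (100% all killed, 0% none killed).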

| Structure (SMILES) | kill rate in % (efficacy) (Ctenocephalides felis) [%] | efficacy in % (fertile eggs laid) (Boophilus microplus [2]) [%] | logP ([4]; HPLC-MS) | efficacy in % [5] [%] | efficacy in % [6] [%] | efficacy in % [11] [%] | other results |
| --- | --- | --- | --- | --- | --- | --- | --- |
| O=C(/C=C/c1cccc(NC(=O)c2cccnc2Cl)c1)NC(c1cccc(C(F)(F)F)c1)C(F)(F)F (centres unmarked) [Ia-5, 2-Chloro-N-{3-[(1E)-3-oxo-3-({2,2,2-trifluoro-1-[3-(trifluoromethyl)phenyl]ethyl}amino)prop-1-en-1-yl]phenyl}nicotinamide] | 80 |  |  |  |  |  | efficacy in % (fertile eggs laid) (Boophilus microplus [1]): 100%; pest or weed control at 0.02 mg (Boophilus microplus [2]): 100%; pest or weed control at 500 g/ha ([3]; Phaedon cochleariae, foliar, application rate 500 g/ha, read-out: efficacy in %): 100%; chromatographic logP ([4]; pH 2.7, HPLC, C18 reverse phase, 43° C., acidic range pH 2.7, calibration with alkan-2-ones): 3.39 |
| Cc1cc(/C=C/C(=O)NC(c2cccc(C(F)(F)F)c2)C(F)(F)F)ccc1C(=O)NCC(F)(F)F (centres unmarked) [Ia-18] | 98 | 100 | HPLC-MS: logP = 3.56; mass |  |  |  | kill rate in % (efficacy) (Musca domestica adults): 90% |
| Cn1cnc(CNC(=O)c2ccc(/C=C/C(=O)NC(c3cccc(C(F)(F)F)c3)C(F)(F)F)cc2C(F)(F)F)c1 (centres unmarked) [Ia-76] | 80 | 100 | HPLC-MS: logP = 1.72; mass | 100 |  |  | efficacy in % (fertile eggs laid) (Boophilus microplus [1]): 100% |
| Cc1cc(/C=C/C(=O)NC(c2cccc(C(F)(F)F)c2)C(F)(F)F)ccc1C(=O)NCC(F)F (centres unmarked) [Ia-100] |  |  | HPLC-MS: logP = 3.13 mass | 100 | 80 |  | efficacy in % ([7]; application rate 500 g/ha): Ia-100%; efficacy in % ([3]; application rate 500 g/ha): Ia-100%; efficacy in % ([8]; application rate 500 g/ha): Ia-100% |
| CC(NC(=O)c1ccc(/C=C/C(=O)NC(c2cccc(C(F)(F)F)c2)C(F)(F)F)cc1Cl)C1CC1 (centres unmarked) [Ia-114] |  | 100 | HPLC-MS: logP = 3.68 mass | 100 | 100 |  | efficacy in % (fertile eggs laid) [9]: 85% |
| Cc1cc(/C=C/C(=O)NC(c2cccc(C(F)(F)F)c2)C(F)(F)F)ccc1C(=O)NCCC1CC1 (centres unmarked) [Ia-115] |  |  | HPLC-MS: logP = 3.61 mass | 100 | 90 | 100 | efficacy in % [10]: 90% |
| O=C(/C=C/c1ccc(C(=O)NC2CSC2)c(C(F)(F)F)c1)NC(c1cccc(C(F)(F)F)c1)C(F)(F)F (centres unmarked) [Ia-130, 4-[(1E)-3-oxo-3-({2,2,2-trifluoro-1-[3-(trifluoromethyl)phenyl]ethyl}-amino)prop-1-en-1-yl]-N-(thietan-3-yl)-2-(trifluoromethyl)benzamide] |  |  |  |  |  | 100 | pest or weed control at 0.02 mg (Boophilus microplus [2]): 100%; pest or weed control at 100 g/ha ([3]; Phaedon cochleariae, foliar, application rate 100 g/ha, read-out: efficacy in %): 100%; pest or weed control at 100 g/ha ([8]; Tetranychus urticae, foliar, 144 h, application rate 100 g/ha, read-out: efficacy in %): 80%; chromatographic logP ([4]; HPLC-MS): 3.62 |
| C#CC(C)(C)NC(=O)c1ccc(/C=C/C(=O)NC(c2cccc(C(F)(F)F)c2)C(F)(F)F)cc1C(F)(F)F (centres unmarked) [Ia-146] | 90 | 100 | HPLC-MS: logP = 3.8; mass |  |  |  | efficacy in % ([7]; application rate 100 g/ha): 100% |
| O=C(/C=C/c1ccc(C(=O)NC(CF)CF)c(Cl)c1)NC(c1cccc(C(F)(F)F)c1)C(F)(F)F (centres unmarked) [Ia-155] |  | 100 | HPLC-MS: logP = 3.36; mass |  |  | 100 | efficacy in % (fertile eggs laid) [9]: 90%; efficacy in % ([7]; application rate 100 g/ha): 83% |
